Key:
Y2 = molecular target: T1, Y2 (Homo sapiens, UniProt P49146); test: Millipore Drug Discovery Safety and Liability Panel; format: cell-based
T1 construct: Millipore

LPA1 = molecular target: T2, LPA1 (Homo sapiens, UniProt Q92633); test: as above; format: cell-based
T2 construct: purchased Millipore

NK3 = molecular target: T3, NK3 (Homo sapiens, UniProt P29371); test: as above; format: cell-based
T3 construct: purchased Millipore

Kv4.3 = Kv4.3 (Homo sapiens, UniProt Q9UK17); test: Cardiac ion channel profile; format: cell-based
Thrombin-activated PARs = test: Millipore Drug Discovery Safety and Liability Panel; format: cell-based; settings: 10 μM
AKT3 = AKT3 (Homo sapiens, UniProt Q9Y243); test: Biochemical kinase assay
AKT = AKT inhibition in primary lung endothelial cells with complete loss of Eng expression (western blot); format: cell-based; settings: Endothelial cell; lung mouse endothelial cells with complete loss of Eng expression; VEGF-A stimulation
5-HT2B = molecular target: T4, 5-HT2B (Homo sapiens, UniProt P41595); test: Millipore Drug Discovery Safety and Liability Panel; format: cell-based
T4 construct: purchased Millipore

CX3CR1 = molecular target: T5, CX3CR1 (Homo sapiens, UniProt P49238); test: as above; format: cell-based
T5 construct: purchased Millipore

CCR1 = molecular target: T6, CCR1 (Homo sapiens, UniProt P32246); test: as above; format: cell-based
T6 construct: purchased Millipore

ADRA2A = molecular target: T7, ADRA2A (Homo sapiens, UniProt P08913); test: as above; format: cell-based
T7 construct: purchased Millipore

ADRB2 = molecular target: T8, ADRB2 (Homo sapiens, UniProt P07550); test: as above; format: cell-based
T8 construct: purchased Millipore

GPR109A = molecular target: T9, GPR109A (Homo sapiens, UniProt Q8TDS4); test: as above; format: cell-based
T9 construct: purchased Millipore

PTH1 = molecular target: T10, PTH1 (Homo sapiens, UniProt Q03431); test: as above; format: cell-based
T10 construct: Millipore

Motilin = molecular target: T11, Motilin (Homo sapiens, UniProt O43193); test: as above; format: cell-based
T11 construct: purchased Millipore

EP3 = molecular target: T12, EP3 (Homo sapiens, UniProt P43115); test: as above; format: cell-based
T12 construct: purchased Millipore

[1] = test system: angiogenesis in C57Bl/6J mice retinas; test: Neonatal retinal angiogenesis model in wild-type mice; format: in vivo, mouse (C57Bl/6J); settings: 2.5 mg·kg−1
Excerpt: For the retinal vascular network, quantification of the number of AV shunts per mouse was done manually. […] A custom own-lab made macro allowed automatic processing of the images, using the same processing and quantification parameters. Briefly, the brightness of the images was enhanced by modifying the pixel extreme values, which depends on the specific image histogram content. A Gaussian filter was applied to reduce the intensity in homogeneities. The filter order depended on the image resolution. Next, the threshold step was computed, based on a global threshold technique such as Otsu's method or Li's method, resulting in binary image. A median filter was then applied to eliminate potential local irregularities, which could cause false branching point detection. From the binary images, the vascular density was quantified (calculated as the ratio of pixels associated with the vessels divided by the total number of pixels in the image). For the other parameters, a skeleton of the images was first computed using ImageJ, then the total vascular length was quantified using the Measure Skeleton Length plug-in from ImageJ. The number of branch points was extracted from the Analyze Skeleton plug-in of ImageJ. All results were transferred to Microsoft Office Excel software and automatically rearranged using a lab custom-made program. As all images generated at each step of the processing were saved, a visual control was made to ensure that there were no aberrant results.
Statistical analysis was performed with Prism 7 software (GraphPad). For most of the experiments, 1-way ANOVA was used for multiple comparisons. Results are expressed as mean±SEM. For post hoc pairwise, the Dunnett's test was used. A value of *P<0.05, **P<0.01, ***P<0.001 or ****P<0.0001 denotes statistical significance. An in-group variation of around 15% in parameters related to blood vessel architecture changes has been previously observed by the inventors, therefore a difference between controls and mutant mice of around 20-30% was anticipated. It was therefore expected that a group of 8 mice per condition would reveal statistical differences.
Eyes were fixed in 4% paraformaldehyde (PFA) in PBS at room temperature for 10 min, retinas were dissected, post-fixed in 4% PFA in PBS at 4° C. overnight then processed for immunostaining. Retinas were permeabilized in PBS, 1% BSA and 0.5% Triton X-100 at 4° C. overnight, rinsed in PBS, washed twice in PBlec (PBS, pH 6.8, 1% Triton-X-100, 0.1 mM CaCl2, 0.1 mM MgCl2, 0.1 mM MnCl2), and then incubated in biotinylated Griffonia simplicifolia lectin (isolectin B4) (B-1205, Vector Laboratories, 1:50) in PBlec at 4° C. overnight. After 5 washes in PBS, samples were incubated with streptavidin Cy-3 (PA43001, Sigma-Aldrich, 1:100) and with a-SMA (clone 1A4) (F3777, Sigma-Aldrich) conjugated with FITC diluted in PBS, 0.5% BSA, and 0.25% X-100 at 4° C. for 2 h. After washing, flat whole-mount retinas were mounted in DAKO medium (S3023, Dako). Complete high-resolution 3-dimensional rendering of whole-mount retinas was acquired using Laser Scanning Microscope SP5 or SP8 (Leica).

A3 = molecular target: T13, A3 (Homo sapiens, UniProt P0DMS8); test: Millipore Drug Discovery Safety and Liability Panel; format: cell-based
T13 construct: purchased Millipore

[2] = read-out: ANTAGONIST mean % inhibition
[3] = read-out: AGONIST mean % increase in activity

T2 sequence (Q92633 whole entry, species assumed): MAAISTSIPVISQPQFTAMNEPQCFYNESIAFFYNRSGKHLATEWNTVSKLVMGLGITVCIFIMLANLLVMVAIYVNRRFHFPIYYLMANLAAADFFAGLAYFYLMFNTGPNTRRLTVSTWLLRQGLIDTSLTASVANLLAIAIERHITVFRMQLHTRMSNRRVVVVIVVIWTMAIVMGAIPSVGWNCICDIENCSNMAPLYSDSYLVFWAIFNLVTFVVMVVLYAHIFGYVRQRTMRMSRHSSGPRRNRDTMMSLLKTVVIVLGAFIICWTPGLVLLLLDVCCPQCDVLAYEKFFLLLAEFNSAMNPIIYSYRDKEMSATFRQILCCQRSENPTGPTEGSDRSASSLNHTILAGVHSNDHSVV
T13 sequence (P0DMS8 whole entry): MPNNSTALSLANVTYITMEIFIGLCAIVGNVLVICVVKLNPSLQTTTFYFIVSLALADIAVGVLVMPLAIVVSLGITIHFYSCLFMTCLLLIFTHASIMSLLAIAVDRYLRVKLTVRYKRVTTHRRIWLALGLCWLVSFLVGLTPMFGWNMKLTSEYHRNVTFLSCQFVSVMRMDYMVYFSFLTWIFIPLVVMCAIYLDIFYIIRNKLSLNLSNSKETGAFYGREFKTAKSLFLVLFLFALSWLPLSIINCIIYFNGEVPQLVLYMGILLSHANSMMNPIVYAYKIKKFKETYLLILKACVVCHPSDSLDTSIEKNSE
T9 sequence (Q8TDS4 whole entry, species assumed): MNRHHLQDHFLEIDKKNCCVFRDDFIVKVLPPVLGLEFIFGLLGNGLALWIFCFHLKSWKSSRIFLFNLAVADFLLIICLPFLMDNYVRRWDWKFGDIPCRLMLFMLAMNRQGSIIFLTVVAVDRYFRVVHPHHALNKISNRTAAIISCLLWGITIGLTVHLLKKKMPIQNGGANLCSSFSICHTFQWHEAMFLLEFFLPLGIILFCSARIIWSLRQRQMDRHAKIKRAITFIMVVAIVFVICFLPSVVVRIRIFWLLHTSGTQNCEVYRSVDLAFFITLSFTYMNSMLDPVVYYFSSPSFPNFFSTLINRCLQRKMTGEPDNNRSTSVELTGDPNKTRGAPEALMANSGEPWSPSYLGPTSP
T6 sequence (P32246 whole entry): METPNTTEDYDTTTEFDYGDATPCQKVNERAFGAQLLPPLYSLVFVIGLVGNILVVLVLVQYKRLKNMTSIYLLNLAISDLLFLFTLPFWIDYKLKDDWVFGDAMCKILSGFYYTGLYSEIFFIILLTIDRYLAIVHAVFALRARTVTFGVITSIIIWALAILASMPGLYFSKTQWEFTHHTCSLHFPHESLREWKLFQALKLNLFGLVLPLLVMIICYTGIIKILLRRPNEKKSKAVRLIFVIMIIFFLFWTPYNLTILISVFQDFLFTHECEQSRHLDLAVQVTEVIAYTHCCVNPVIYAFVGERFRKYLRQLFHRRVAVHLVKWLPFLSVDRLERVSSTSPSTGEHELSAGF
T3 sequence (P29371 whole entry): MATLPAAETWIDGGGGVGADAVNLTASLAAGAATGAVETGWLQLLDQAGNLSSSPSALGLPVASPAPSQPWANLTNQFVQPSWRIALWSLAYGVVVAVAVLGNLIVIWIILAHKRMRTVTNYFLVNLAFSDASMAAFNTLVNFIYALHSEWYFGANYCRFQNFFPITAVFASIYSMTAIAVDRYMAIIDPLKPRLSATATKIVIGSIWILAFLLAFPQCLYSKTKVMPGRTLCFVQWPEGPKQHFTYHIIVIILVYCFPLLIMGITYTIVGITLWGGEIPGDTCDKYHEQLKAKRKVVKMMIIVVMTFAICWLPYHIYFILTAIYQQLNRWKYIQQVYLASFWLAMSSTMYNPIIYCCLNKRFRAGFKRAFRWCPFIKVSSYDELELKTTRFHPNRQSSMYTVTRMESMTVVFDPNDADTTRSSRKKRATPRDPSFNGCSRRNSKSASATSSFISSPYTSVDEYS
T12 sequence (P43115 whole entry): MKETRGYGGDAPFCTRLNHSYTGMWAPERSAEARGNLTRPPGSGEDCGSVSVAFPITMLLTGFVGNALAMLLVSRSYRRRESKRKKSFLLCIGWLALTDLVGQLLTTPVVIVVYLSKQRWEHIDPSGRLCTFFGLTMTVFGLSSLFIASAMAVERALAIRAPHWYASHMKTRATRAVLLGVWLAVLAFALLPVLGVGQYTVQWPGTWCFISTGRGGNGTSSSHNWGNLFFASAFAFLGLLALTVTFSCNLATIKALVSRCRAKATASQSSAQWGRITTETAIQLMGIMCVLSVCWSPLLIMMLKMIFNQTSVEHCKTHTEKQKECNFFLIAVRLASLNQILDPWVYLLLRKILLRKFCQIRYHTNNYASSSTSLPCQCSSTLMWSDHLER
T8 sequence (P07550 whole entry): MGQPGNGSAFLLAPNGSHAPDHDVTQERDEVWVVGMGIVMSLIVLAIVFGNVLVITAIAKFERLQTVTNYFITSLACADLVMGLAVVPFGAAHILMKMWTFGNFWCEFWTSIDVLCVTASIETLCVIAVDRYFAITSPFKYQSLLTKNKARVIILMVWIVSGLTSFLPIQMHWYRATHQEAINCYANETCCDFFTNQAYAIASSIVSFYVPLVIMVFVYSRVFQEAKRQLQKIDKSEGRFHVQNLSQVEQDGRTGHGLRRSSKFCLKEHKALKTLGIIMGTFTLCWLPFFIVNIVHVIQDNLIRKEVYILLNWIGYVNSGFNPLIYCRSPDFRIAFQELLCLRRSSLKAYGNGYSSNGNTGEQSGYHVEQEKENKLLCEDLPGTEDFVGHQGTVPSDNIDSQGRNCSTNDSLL
T1 sequence (P49146 whole entry): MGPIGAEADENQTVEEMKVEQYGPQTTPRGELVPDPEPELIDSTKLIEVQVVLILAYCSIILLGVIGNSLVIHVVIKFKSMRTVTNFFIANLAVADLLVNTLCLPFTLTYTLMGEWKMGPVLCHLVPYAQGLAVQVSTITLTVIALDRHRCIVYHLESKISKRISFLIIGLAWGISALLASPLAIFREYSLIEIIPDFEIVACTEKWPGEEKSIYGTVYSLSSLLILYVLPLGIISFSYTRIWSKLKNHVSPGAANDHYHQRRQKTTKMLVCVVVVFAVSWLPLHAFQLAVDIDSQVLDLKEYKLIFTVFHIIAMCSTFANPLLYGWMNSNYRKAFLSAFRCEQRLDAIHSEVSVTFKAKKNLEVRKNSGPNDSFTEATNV
T5 sequence (P49238 whole entry): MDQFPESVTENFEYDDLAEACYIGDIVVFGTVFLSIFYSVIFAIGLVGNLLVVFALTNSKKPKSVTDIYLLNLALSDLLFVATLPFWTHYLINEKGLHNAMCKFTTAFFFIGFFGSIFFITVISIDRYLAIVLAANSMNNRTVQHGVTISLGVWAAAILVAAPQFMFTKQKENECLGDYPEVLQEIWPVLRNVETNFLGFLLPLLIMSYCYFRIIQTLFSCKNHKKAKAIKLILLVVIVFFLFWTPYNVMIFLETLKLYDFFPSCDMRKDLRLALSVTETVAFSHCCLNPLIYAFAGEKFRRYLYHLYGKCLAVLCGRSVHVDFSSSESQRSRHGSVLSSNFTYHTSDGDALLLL
T11 sequence (O43193 whole entry): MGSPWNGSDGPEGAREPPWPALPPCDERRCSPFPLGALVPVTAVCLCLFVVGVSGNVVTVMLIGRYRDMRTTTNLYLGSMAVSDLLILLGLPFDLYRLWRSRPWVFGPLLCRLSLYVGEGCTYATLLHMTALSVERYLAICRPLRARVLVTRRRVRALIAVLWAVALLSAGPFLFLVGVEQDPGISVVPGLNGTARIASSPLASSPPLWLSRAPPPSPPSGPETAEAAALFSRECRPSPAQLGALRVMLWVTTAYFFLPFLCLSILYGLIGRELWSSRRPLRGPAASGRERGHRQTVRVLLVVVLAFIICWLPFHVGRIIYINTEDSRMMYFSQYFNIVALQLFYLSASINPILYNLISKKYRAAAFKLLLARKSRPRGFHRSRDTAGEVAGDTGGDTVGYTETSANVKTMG
AKT3, sequence (Q9Y243 whole entry): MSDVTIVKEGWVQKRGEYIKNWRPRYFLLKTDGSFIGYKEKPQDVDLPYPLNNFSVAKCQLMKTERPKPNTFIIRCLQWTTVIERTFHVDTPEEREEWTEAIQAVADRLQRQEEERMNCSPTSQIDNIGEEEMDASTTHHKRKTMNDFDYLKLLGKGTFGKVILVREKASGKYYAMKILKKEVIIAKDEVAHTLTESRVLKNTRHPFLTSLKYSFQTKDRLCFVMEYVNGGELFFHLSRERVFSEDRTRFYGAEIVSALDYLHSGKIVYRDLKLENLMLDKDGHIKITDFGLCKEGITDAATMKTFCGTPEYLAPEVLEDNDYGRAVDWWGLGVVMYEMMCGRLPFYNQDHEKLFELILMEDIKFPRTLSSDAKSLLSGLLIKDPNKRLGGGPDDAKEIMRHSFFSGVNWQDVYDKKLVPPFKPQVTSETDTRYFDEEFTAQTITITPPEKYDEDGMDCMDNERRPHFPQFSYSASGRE
T7 sequence (P08913 whole entry): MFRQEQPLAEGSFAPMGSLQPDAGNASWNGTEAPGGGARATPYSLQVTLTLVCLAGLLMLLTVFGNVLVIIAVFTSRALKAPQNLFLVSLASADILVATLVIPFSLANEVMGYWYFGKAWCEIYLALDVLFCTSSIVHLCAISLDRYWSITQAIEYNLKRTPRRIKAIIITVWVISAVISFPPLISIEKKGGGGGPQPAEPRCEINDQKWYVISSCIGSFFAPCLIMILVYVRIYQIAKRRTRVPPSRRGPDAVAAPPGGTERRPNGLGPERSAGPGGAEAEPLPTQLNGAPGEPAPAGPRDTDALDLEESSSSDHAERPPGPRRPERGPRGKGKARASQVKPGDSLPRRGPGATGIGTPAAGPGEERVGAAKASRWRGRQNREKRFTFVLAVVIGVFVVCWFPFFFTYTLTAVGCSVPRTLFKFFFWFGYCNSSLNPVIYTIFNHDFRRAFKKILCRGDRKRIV

In the case of `CCN1C(=O)COc2nc(-c3ccc(C4(N)CC(O)C4)cc3)c(-c3ccccc3)cc21.O=C(O)C(O)C(O)C(=O)O` [VAD044, 6-(4-(1-amino-3-hydroxycyclobutyl)phenyl)-1-ethyl-7-phenyl-1H-pyrido[2,3-b][1,4]oxazin-2(3H)-one L-tartrate], the activation at 10 µM (Y2; Y2, 10 μM, read-out: AGONIST mean % increase in activity) is reported as -2.2%, the inhibition at 10 µM (Y2; [2]) is reported as -5.7% and the activation at 10 µM (LPA1; [3]) is reported as -1.3%. The inhibition at 10 µM (LPA1; [2]) was 57.4%, the activation at 10 µM (NK3; NK3, 10 μM, read-out: AGONIST mean % increase in activity) was -0.4% and the inhibition at 10 µM (NK3; [2]) was 16.9%. The inhibition at 10 µM (Kv4.3) was < 25%, the “AGONIST mean % increase in activity” value (Thrombin-activated PARs) was 0% and the “ANTAGONIST mean % inhibition” value (Thrombin-activated PARs) was −1.2%. The IC50 (AKT3) was > 0.5 µM, the EC50 (AKT3; read-out: EC50 value for the AKT3 isoform) was > 0.5 µM and the IC50 (AKT) was 0.093 µM. The activation at 10 µM (5-HT2B; [3]) was 3.7%, the inhibition at 10 µM (5-HT2B; [2]) was 7.6% and the “AGONIST mean % increase in activity” value (CX3CR1; CX3CR1, 10 μM) was 0%. The inhibition at 10 µM (CX3CR1; [2]) was 0.6%, the activation at 10 µM (CCR1; CCR1, 10 μM, read-out: AGONIST mean % increase in activity) was 0.2% and the inhibition at 10 µM (CCR1; [2]) was 9.5%. The activation at 10 µM (ADRA2A; ADRA2A, 10 μM, read-out: AGONIST mean % increase in activity) was -0.2%, the inhibition at 10 µM (ADRA2A; [2]) was 11.8% and the activation at 10 µM (ADRB2; ADRB2, 10 μM, read-out: AGONIST mean % increase in activity) was 0.8%. The inhibition at 10 µM (ADRB2; [2]) was 6.1%, the activation at 10 µM (GPR109A; GPR109A, 10 μM, read-out: AGONIST mean % increase in activity) was -0.7% and the inhibition at 10 µM (GPR109A; [2]) was 3.1%. For the same compound, the activation at 10 µM (PTH1; PTH1, 10 μM, read-out: AGONIST mean % increase in activity) was -1.1%, the inhibition at 10 µM (PTH1; [2]) was -2.5% and the activation at 10 µM (Motilin; [3]) was -0.3%. The inhibition at 10 µM (Motilin; [2]) was 50%, the activation at 10 µM (EP3; EP3, 10 μM, read-out: AGONIST mean % increase in activity) was -0.1% and the inhibition at 10 µM (EP3; [2]) was 9.2%. The “impact on normal angiogenesis” value [1] was “little or no impact on normal angiogenesis”, the activation at 10 µM (A3; [3]) was 0.2% and the inhibition at 10 µM (A3; [2]) was 28.5%.
